Measurements taken from paper PMC11211886 (Frontiers in Pharmacology, 2024).
Converted amounts (≈) assume the structure as drawn. “And” between values parts separate entries of the source, which are not always exact repeats. Equal values may be shown once. Read-outs that look alike come from different tables or passages of the source.

Experiments:
plasma proteins [1] = test: Plasma protein binding (RED), mouse plasma; assay type: in vitro ADME
Description: (§1) The plate containing plasma and buffer was equilibrated for 6 h in a 37°C water shaking bath. After incubation, aliquots of buffer and plasma (20 µL) on both sides were collected and precipitated using organic solvents. […] The post-dialysis recovery of amdizalisib was also measured.

plasma proteins [2] = test: Plasma protein binding (RED), monkey plasma; assay type: in vitro ADME
Description: as §1

[3] = Metabolic stability in monkey liver microsomes; assay type: in vitro ADME
Description: FMO was deactivated by heating liver microsomes at 45°C for 5 min. […] The natural logarithm of the percentage of the drug remaining was plotted against the incubation time, and the slope of the linear regression (-k) was converted to in vitro half-lives (t1/2) using the following equation: […] (1) metabolic clearance is the major mechanism of clearance; (2) liver is the major organ of clearance; and (3) oxidation is the major metabolic pathway. CLint,in vitro=k / Cmicrosomes , Scaled CLint,in vivo=CLint,in vitro×microsomes yield×liver weight, where Cmicrosomes means the experimental protein concentration (0.5 mg/mL) in the incubation system. […] Then, the scaled in vivo intrinsic clearance was used to predict the systemic clearance (equal to the hepatic clearance) using the well-stirred venous equilibration model ([Houston, 1994]).

CYP2C8 = molecular target: T1, CYP2C8 (Homo sapiens, UniProt P10632); test: Reversible CYP inhibition in HLM, CYP2C8 (paclitaxel); assay type: in vitro ADME; settings: for enzyme activity remaining: CYP2C8, HLM
T1 construct: tissue Life Technologies (Durham, NC, USA); host or cells: human liver microsomes
T1 sequence (P10632 1-490): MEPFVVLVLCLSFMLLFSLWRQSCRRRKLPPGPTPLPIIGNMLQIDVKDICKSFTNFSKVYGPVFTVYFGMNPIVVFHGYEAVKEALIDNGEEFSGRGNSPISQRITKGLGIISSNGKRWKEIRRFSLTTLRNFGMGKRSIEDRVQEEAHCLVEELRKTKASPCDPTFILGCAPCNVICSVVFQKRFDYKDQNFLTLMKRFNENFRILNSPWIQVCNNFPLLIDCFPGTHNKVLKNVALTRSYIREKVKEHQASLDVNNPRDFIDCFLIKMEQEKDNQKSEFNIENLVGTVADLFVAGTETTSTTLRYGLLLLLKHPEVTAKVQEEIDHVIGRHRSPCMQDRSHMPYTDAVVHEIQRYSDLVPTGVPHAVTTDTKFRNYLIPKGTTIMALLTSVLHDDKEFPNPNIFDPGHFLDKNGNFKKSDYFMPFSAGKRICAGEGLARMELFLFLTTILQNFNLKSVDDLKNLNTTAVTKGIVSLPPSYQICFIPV
Description: (§2) The markers used to determine the activities of CYP isoforms were phenacetin O-deethylation for CYP1A2 (probe substrate: 50 µM phenacetin), bupropion hydroxylation for CYP2B6 (probe substrate: 70 µM bupropion), paclitaxel 6α-hydroxylation for CYP2C8 (probe substrate: 10 µM paclitaxel), diclofenac 4′-hydroxylation for CYP2C9 (probe substrate: 5 µM diclofenac), S-(+)-mephenytoin 4′-hydroxylation for CYP2C19 (probe substrate: 20 µM S-(+)-mephenytoin), dextromethorphan O-demethylation for CYP2D6 (probe substrate: 6 µM dextromethorphan), chlorzoxazone 6′-hydroxylation for CYP2E1 (probe substrate: 70 µM chlorzoxazone), and testosterone 6β-hydroxylation and midazolam 1′-hydroxylation for CYP3A4/5 (probe substrate: 45 µM testosterone and 5 µM midazolam). […] Alpha-naphthoflavone (0.04 µM), 2-phenyl-2-(1-piperidinyl)propane (5 µM), quercetin (1 µM), sulfaphenazole (0.5 µM), ticlopidine (4 µM), quinidine (0.2 µM), diethyldithiocarbamate (20 µM), and ketoconazole (0.05 µM) were used as positive inhibitors of CYP1A2, 2B6, 2C8, 2C9, 2C19, 2D6, 2E1, and 3A4, respectively. The vehicle control was prepared in the same composition as inhibitor solutions but free of inhibitors. The concentrations of probe substrates were close to Km values that were determined in-house and within the range recommended by the FDA ([Huang et al., 2007]). Reaction mixtures were incubated at 37°C for 5, 20, or 30 min, depending on the probe substrates of CYP isoforms. The reactions were terminated by adding cold acetonitrile containing IS, and the terminated incubation mixtures were centrifuged at 3,000 g for 10 min before LC-MS/MS analysis.

CYP2C19 = molecular target: T2, CYP2C19 (Homo sapiens, UniProt P33261); test: Reversible CYP inhibition in HLM, CYP2C19 (S-mephenytoin); assay type: in vitro ADME; settings: for enzyme activity remaining: CYP2C19, HLM
T2 construct: tissue Life Technologies (Durham, NC, USA); host or cells: human liver microsomes
Description: as §2

CYP2D6 = molecular target: T3, CYP2D6 (Homo sapiens, UniProt P10635); test: Time-dependent CYP inhibition in HLM, CYP2D6; assay type: in vitro ADME; settings: 10 μM, 30 min pre-incubation with NADPH
T3 construct: tissue Life Technologies (Durham, NC, USA); host or cells: human liver microsomes
Description: The procedure of time-dependent CYP inhibition was similar to that used for CYP reversible inhibition, as mentioned above, except that a pre-incubation step was added. […] Another appropriate volume of the NADPH-regenerating system and probe substrate were added to initiate the CYP isoform enzyme activity test step. For this step, the incubation period was 10 min, except for CYP2B6, CYP2C8, and CYP3A4/5 (probe substrate: midazolam), which was 3 min to make sure the reaction was under initial linear rates. After incubation for the designated time periods at 37°C, the ice-cold acetonitrile containing IS was added to quench the reaction. […] (Ainactivator/[…] represents the enzyme activity remaining due to the inhibition by the diluted inactivator in the enzyme activity test step, and (Ainactivator/[…] represents the remaining enzyme activity due to pre-incubation loss plus inhibition by the diluted inactivator in the enzyme activity test step.

Solubility = assay type: physicochemical; settings: water, pH 7.78
[4] = HLM, reversible, without pre-incubation

T2 sequence (P33261 whole entry): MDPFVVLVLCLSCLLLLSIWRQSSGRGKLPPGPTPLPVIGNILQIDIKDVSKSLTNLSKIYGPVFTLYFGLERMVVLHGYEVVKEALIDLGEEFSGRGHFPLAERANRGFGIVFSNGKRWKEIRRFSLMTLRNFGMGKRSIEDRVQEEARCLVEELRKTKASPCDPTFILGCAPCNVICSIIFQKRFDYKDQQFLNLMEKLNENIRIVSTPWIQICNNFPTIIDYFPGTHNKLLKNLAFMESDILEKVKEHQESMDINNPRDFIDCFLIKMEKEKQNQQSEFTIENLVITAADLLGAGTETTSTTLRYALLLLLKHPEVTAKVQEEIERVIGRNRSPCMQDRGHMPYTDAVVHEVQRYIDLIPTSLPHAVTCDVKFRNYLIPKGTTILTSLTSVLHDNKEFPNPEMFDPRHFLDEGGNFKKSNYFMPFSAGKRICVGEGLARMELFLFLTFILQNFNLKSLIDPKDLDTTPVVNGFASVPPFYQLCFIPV
T3 sequence (P10635 whole entry): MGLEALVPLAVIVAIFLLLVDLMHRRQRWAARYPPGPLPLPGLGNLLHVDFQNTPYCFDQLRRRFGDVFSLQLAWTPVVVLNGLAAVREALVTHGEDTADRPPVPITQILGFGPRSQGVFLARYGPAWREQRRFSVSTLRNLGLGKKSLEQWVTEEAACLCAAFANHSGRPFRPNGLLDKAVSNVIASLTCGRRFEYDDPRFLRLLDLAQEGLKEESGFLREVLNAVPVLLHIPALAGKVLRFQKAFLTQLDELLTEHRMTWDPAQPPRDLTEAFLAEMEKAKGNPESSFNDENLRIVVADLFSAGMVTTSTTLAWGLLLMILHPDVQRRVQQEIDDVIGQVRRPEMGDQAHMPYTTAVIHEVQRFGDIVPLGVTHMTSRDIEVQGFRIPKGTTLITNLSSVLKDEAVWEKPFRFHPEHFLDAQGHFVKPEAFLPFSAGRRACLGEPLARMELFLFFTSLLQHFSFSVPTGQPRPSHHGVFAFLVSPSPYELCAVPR

C[C@H](Nc1ncnc(N)c1C#N)c1cc2ncc(Cl)n2nc1-c1ccccc1 [Amdizalisib]
Binding fraction to plasma proteins, Mouse (plasma proteins [1]; 1 µM): 91.5 ± 1.01% | Binding fraction to plasma proteins, Mouse (plasma proteins [1]; mouse, 6 h, 0.1 µM, pH 7.4): 91.1 ± 0.95% | Binding fraction to plasma proteins, Mouse (plasma proteins [1]; mouse, 6 h, 20 µM, pH 7.4): 91.3 ± 0.89% | Binding fraction to plasma proteins, Monkey (plasma proteins [2]; 0.1 µM): 90.6 ± 4.56% | Binding fraction to plasma proteins, Monkey (plasma proteins [2]; 1 µM): 89.7 ± 0.22% | Binding fraction to plasma proteins, Monkey (plasma proteins [2]; 20 µM): 88.9 ± 0.38% | CLint scaled at 1 µM ([3]; female, monkey, microsomes, pH 7.4, Predicted CL int, iv vivo): 19.2 mL/min/kg | half-life at 1 µM ([3]; female, monkey, microsomes, pH 7.4, in vitro t1/2): 1.63 h | Predicted CL sys ([3]; male monkey liver microsomes, FMO deactivation): 15.9 mL/min/kg | CLint scaled at 1 µM ([3]; male, monkey, microsomes, pH 7.4, Predicted CL int, iv vivo): 30 mL/min/kg | half-life at 1 µM ([3]; male, monkey, microsomes, pH 7.4, in vitro t1/2): 1.04 h | CLint scaled at 1 µM ([3]; pH 7.4, female monkey liver microsomes, FMO deactivation, read-out: Predicted CL int, iv vivo): 18.1 mL/min/kg | half-life at 1 µM ([3]; pH 7.4, female monkey liver microsomes, FMO deactivation, read-out: in vitro t1/2): 1.72 h | enzyme activity remaining (CYP2C8; 0.08 μM): 110% and 105% | enzyme activity remaining (CYP2C8; 0.4 μM): 105% and 109% | enzyme activity remaining (CYP2C8; 2 μM): 98.8% and 104% | enzyme activity remaining (CYP2C8; 10 μM): 67.3% and 76.5% | enzyme activity remaining (CYP2C8; 50 μM): 38.0% and 39.6% | IC50 (CYP2C8; [4]): 30.4 µM | enzyme activity remaining (CYP2C19; 0.08 μM): 97.1% and 111% | enzyme activity remaining (CYP2C19; 0.4 μM): 105% | enzyme activity remaining (CYP2C19; 0.4 μM, listed as amdizalisib): 99.5% | enzyme activity remaining (CYP2C19; 2 μM): 102% and 98.0% | enzyme activity remaining (CYP2C19; 10 μM): 96.6% and 88.1% | enzyme activity remaining (CYP2C19; 50 μM): 68.6% and 65.9% | IC50 (CYP2C19; [4]): > 50 µM | activity loss of CYP2D6 (CYP2D6): less than 10% | solubility (Solubility): 25 µg/mL (≈ 64 µM)
